Read-outs that look alike come from different tables or passages of the source.
Assays:
E. coli D21f2tolC = experiment: Resistance and cross-resistance levels, rpoB mutants from saturation mutagenesis (plasmid-borne), broth microdilution; format: cell-based, Escherichia coli
GE23077 = experiment: partial-competitive binding of GE and Rif: association kinetics for Rif (fluorescence intensity of fluorescein-labelled RNAP holoenzyme); settings: 2000 nM GE
[1] = molecular target: [F^517]σ^70-RNAP holoenzyme (E. coli RNAP holoenzyme labelled with fluorescein at σ^70 residue 517), wild-type RNAP (E. coli) (UniProt P0A8V2); experiment: other fluorescence titration
[Asp565]β-RNAP = [Asp565]β-RNAP (Escherichia coli, UniProt P0A8T7+P0A8V2, E565D); format: biochemical
Escherichia coli RNAP = Escherichia coli RNAP (Escherichia coli, UniProt P0A8T7+P0A8V2); experiment: biochemical; format: biochemical; settings: wild-type RNAP; at the limit of detection of the assay
[Asn516]β-RNAP = [Asn516]β-RNAP (Escherichia coli, UniProt P0A8T7+P0A8V2, D516N); experiment: biochemical; format: biochemical
E. coli RNAP holoenzyme [2] = molecular target: T1, E. coli RNAP holoenzyme (Escherichia coli, UniProt P0A8T7+P0A8V2); format: biochemical; settings: 0.5 μM GE or 2.2 μM Rif; lacUV5(ICAP) promoter
[3] = molecular target: T2, E. coli RNAP holoenzyme ([F^517]σ^70-RNAP holoenzyme) (Escherichia coli, UniProt P0A8T7+P0A8V2); experiment: Fluorescence-detected RNAP-Rif interaction assay; format: binding; settings: for Kd: calculated as koff/kon
T2 construct: made in house
Experimental: RNAP-Rif interaction assays were performed as in [Feklistov et al. (2008)]. The assays monitored the quenching of the fluorescence emission of fluorescein incorporated into RNAP holoenzyme at σ^70 residue 517 (serving as a fluorescence-resonance-energy-transfer donor) by the naphthyl moiety of Rif (serving as a fluorescence-resonance-energy-transfer acceptor; [Knight et al., 2005]; [Feklistov et al., 2008]). Fluorescence measurements were performed using a QuantaMaster QM1 spectrofluorometer (PTI, Edison, NJ) (excitation wavelength = 480 nm; emission wavelength = 530 nm; and excitation and emission slit widths = 5 nm).
For determination of association kinetics, 720 μl 2 nM [F^517]σ^70-RNAP holoenzyme and 0-2 μM GE in 40 mM Tris–HCl, pH 8.0, 100 mM NaCl, 10 mM MgCl2, 1 mM DTT, 0.02% Tween-20, and 5% glycerol was incubated 15 min at 24°C and then mixed with 30 μl 0.01–0.5 μM Rif in the same buffer at 24°C in a cuvette chamber with a mixing dead time ∼0.5 s, and fluorescence emission intensities were monitored for 30 min at 24°C. On-rates for RNAP-Rif interaction, kon, were calculated by fitting data to: I=(I0−I∞)exp(−kobst)+I∞ where kobs is the observed association rate constant at a specified Rif concentration, I is the fluorescence emission intensity at time t, Io is the fluorescence emission intensity at t = 0, and I∞ is the fluorescence emission intensity at t = ∞; followed by fitting the Rif-concentration-dependence of kobs to: kobs=kon[Rif]+koff where koff is ≥0 but is otherwise unconstrained.
Off-rates for RNAP-Rif interaction, koff, were calculated as: I=I0+(I∞−I0)[1−exp(−kofft)] where I is the fluorescence emission intensity at time t, Io is the fluorescence intensity at t = 0, and I∞ is the fluorescence intensity at t = ∞.
Equilibrium dissociation constants for RNAP-Rif interaction, Kd, were calculated as koff/kon.
The equilibrium dissociation constant for RNAP-GE interaction, Ki, was calculated from the association-kinetics data, by fitting the GE-concentration-dependence of I∞ to: I∞=(I∞,max[GE])/(Ki+[GE])

E. coli RNAP holoenzyme [4] = molecular target: T1, E. coli RNAP holoenzyme; format: biochemical; settings: 0.5 μM GE or 2.2 μM Rif; ApA primer and UTP
E. coli RNAP holoenzyme [5] = molecular target: T1, E. coli RNAP holoenzyme; format: biochemical; settings: halted TEC containing 29 nt RNA product
[6] = rpoB 565 Glu→Asp, GE^R mutant from saturation mutagenesis
[7] = rpoB 566 Gly→Arg, GE^R mutant from saturation mutagenesis
[8] = rpoB 566 Gly→Cys, GE^R mutant from saturation mutagenesis
[9] = rpoB 566 Gly→Ser, GE^R mutant from saturation mutagenesis
[10] = rpoB 684 Asn→Lys, GE^R mutant from saturation mutagenesis
[11] = rpoB 684 Asn→Thr, GE^R mutant from saturation mutagenesis
[12] = wild-type control of the saturation-mutagenesis mutants, E. coli D21f2tolC

Row | Compound | resistance / cross-resistance level (MIC/MICwild-type) (E. coli D21f2tolC; [6]) | resistance / cross-resistance level (MIC/MICwild-type) (E. coli D21f2tolC; [7]) | resistance / cross-resistance level (MIC/MICwild-type) (E. coli D21f2tolC; [8]) | resistance / cross-resistance level (MIC/MICwild-type) (E. coli D21f2tolC; [9]) | resistance / cross-resistance level (MIC/MICwild-type) (E. coli D21f2tolC; [10]) | resistance / cross-resistance level (MIC/MICwild-type) (E. coli D21f2tolC; [11]) | MICwild-type (E. coli D21f2tolC; [12]) [µg/mL] | also measured
1 | CNC(=O)[C@@H](C)[C@H]1C(=O)/C(=C(O)/C=C/C(C)=C/[C@@H](C)[C@H]2O[C@@]3(C)O[C@H](C=C[C@@]34CO4)[C@@H]2C)C(=O)N1[C@@H]1CC[C@H](O)[C@H](C)O1 [Stl, streptolydigin] | – | – | – | – | – | – | – | MICwild-type (E. coli D21f2tolC; {}): 0.78 µg/mL; resistance / cross-resistance level (MIC/MICwild-type) (E. coli D21f2tolC; {}): 1
2 | [F^517]σ^70-RNAP holoenzyme (E. coli RNAP holoenzyme labelled with fluorescein at σ^70 residue 517), wild-type RNAP (from UniProt P0A8V2;P0A8T7;P00579) [Lys684]β | – | – | – | – | – | – | – | Ki (GE23077): > 2 µM
3 | GE23077 (peptide) | – | – | – | – | – | – | – | Ki [1]: 0.006 µM
4 | Sorangicin | 1 | 1 | 1 | 1 | 1 | 1 | 1.56 | –
5 | CO[C@H]1/C=C/O[C@@]2(C)Oc3c(C)c(O)c4c(O)c(c(NC(C)C(C)C(=O)NC[C@H]5NC(=O)CNC(=O)[C@H](O)CNC(=O)[C@@H]([C@@H](C)O)NC(=O)[C@H]([C@@H](O)[C@H](O)C(N)=O)NC(=O)[C@@H](C(C)C)NC(=O)[C@@H](CO)NC5=O)c(O)c4c3C2=O)NC(=O)/C(C)=C\C=C\[C@H](C)[C@H](O)[C@@H](C)[C@@H](O)[C@@H](C)[C@H](OC(C)=O)[C@@H]1C (stereo partly drawn) [RifaGE-3, {[α-descarboxy-Ama]GE}-NH-{RifSV}] | – | – | – | – | – | – | – | fold more potent than GE in inhibition of GE^R RNAP ([Asp565]β-RNAP): > 2500 fold; IC50 (Escherichia coli RNAP): ≤ 0.04 µM; fold more potent than RifSV in inhibition of Rif^R RNAP ([Asn516]β-RNAP): 50 fold; IC50 ([Asn516]β-RNAP; Rif-resistant RNAP [Asn516]β-RNAP, read-out: IC50): 0.2 µM
6 | Lipiarmycin [Lpm] | 1 | 1 | 1 | 1 | 1 | 1 | 0.78 | –
7 | CCC/C(C)=C/C=C(\C)C(=O)c1c(O)cc([C@H](C)CC/C=C/NC(=O)OC)oc1=O (racemic) [Myx, (±)E,E-myxopyronin B] | 1 | 1 | 1 | 1 | 1 | 1 | 0.098 | –
8 | ONC(=Nc1ccccc1)c1cccc(C(F)(F)F)c1 [CBR703] | 1 | 1 | 1 | 1 | 1 | 2 | 6.25 | –
9 | [F^517]σ^70-RNAP holoenzyme (E. coli RNAP holoenzyme labelled with fluorescein at σ^70 residue 517), wild-type RNAP (from UniProt P0A8V2;P0A8T7;P00579) [Asp565]β | – | – | – | – | – | – | – | Ki (GE23077): > 2 µM
10 | CO[C@H]1/C=C/O[C@@]2(C)Oc3c(C)c(O)c4c(O)c(c(/C=N/N5CCN(C)CC5)c(O)c4c3C2=O)NC(=O)/C(C)=C\C=C\[C@H](C)[C@H](O)[C@@H](C)[C@@H](O)[C@@H](C)[C@H](OC(C)=O)[C@@H]1C [Rif, Rifampin] | – | – | – | – | – | – | – | MICwild-type: 0.2 µg/mL; inhibition of formation of RNAP-promoter open complex (RPo) (E. coli RNAP holoenzyme [2]): does not inhibit formation of RPo; Kd ([3]; absence of GE): 0.0004 µM; Kd ([3]; presence of saturating GE (2000 nM)): 0.03 µM; koff ([3]; read-out: koff for Rif, 0 nM GE, Figure 6-figure supplement 1): 0.00019 s⁻¹; koff ([3]; read-out: koff for Rif, absence of GE, Figure 6C): 0.0002 s⁻¹; kon ([3]; read-out: kon for Rif, 0 nM GE, Figure 6-figure supplement 1 (condition assigned by comparison with Figure 6C)): 520000 M⁻¹ s⁻¹; kon ([3]; read-out: kon for Rif, absence of GE, Figure 6C): 500000 M⁻¹ s⁻¹; inhibition of first nucleotide addition, primer-dependent transcription initiation (E. coli RNAP holoenzyme [4]): does not generally inhibit the first nucleotide-addition step in transcription initiation; cross-resistance of GE^R mutants to other RNAP inhibitors (E. coli D21f2tolC; GE^R mutants): do not exhibit cross-resistance; resistance / cross-resistance level (MIC/MICwild-type) (E. coli D21f2tolC; {}): 1; inhibition of nucleotide addition in transcription elongation, halted elongation complex (E. coli RNAP holoenzyme [5]): does not inhibit nucleotide addition in transcription elongation
11 | CO[C@H]1/C=C/O[C@@]2(C)Oc3c(C)c(O)c4c(O)c(cc(O)c4c3C2=O)NC(=O)/C(C)=C\C=C\[C@H](C)[C@H](O)[C@@H](C)[C@@H](O)[C@@H](C)[C@H](OC(C)=O)[C@@H]1C [RifSV, rifamycin SV] | – | – | – | – | – | – | – | IC50 ([Asn516]β-RNAP): 10 µM
